Measured values taken from publication PMC3293897, “Diphenyl Urea Derivatives as Inhibitors of Transketolase: A Structure-Based Virtual Screening” (PLoS ONE, 2012).
Read-outs that look alike come from different tables or passages of the source.

What was measured:
[1] = target: T1, Transketolase from cell extract (Homo sapiens, UniProt P29401); assay: Transketolase activity in cell extract (enzyme-linked NADH oxidation, spectrophotometric/fluorimetric); assay type: biochemical; conditions: for inhibitory activity class (Figure 2): Figure 2 grouping
T1 construct: approximately 300 µg of protein cell extract used for the determination of transketolase enzyme activity; endogenous in cells; host or cells: Cultured cells
T1 sequence (P29401 1-623): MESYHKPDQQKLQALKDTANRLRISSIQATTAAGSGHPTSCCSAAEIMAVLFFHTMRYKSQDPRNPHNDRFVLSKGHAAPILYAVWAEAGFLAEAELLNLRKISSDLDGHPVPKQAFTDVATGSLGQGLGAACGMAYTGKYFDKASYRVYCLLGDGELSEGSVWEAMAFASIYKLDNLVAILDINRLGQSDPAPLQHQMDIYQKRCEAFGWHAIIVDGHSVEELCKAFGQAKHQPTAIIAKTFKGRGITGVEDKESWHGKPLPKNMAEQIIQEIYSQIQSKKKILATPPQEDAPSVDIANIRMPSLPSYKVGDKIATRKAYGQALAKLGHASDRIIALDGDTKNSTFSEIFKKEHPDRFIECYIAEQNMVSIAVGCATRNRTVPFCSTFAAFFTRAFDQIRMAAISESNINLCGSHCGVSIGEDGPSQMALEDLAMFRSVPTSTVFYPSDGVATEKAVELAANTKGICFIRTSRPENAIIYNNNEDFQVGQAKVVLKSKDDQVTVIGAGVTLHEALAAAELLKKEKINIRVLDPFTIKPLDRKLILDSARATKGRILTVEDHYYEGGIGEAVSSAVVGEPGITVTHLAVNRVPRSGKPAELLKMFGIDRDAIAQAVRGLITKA
Method: Cell cultures were washed with PBS, detached from the flasks using 0.025% trypsin-EDTA and then resuspended in lysis buffer (1 mM dithiothreitol, 1 mM EDTA, 0.02% Triton X-100, 0.02% sodium deoxycholate, 0.2 mM phenylmethylsulfonyl fluoride, 1% sodium azide and 20 mM Tris-HCl, pH 7.5). Cells were homogenized using a laboratory sonicator (1/2 Liter Branson 200 Ultrasonic bath, 5 min, 40 kHz, 4°C) and immediately ultracentrifuged at 105000×g for 1 hour at 4°C. The supernatant was separated and approximately 300 µg of protein cell extract used for the determination of transketolase enzyme activity using a Cobas Mira Plus chemistry analyzer (HORIBA ABX, Montpellier, France) or a spectrofluorimeter Kontron SFM-25 (Bio-Tek Instruments, VT, United States).
Transketolase (EC 2.2.1.1) activity was determined using the enzyme linked method described by Smeets and colleagues. Briefly, cell extract and inhibitors were added to a cuvette containing 5 mM MgCl2, 0.2 U×mL^−1 glycerophsphate dehydrogenase-triosephosphate isomerase (from rabbit muscle), 0.2 mM NADH, 0.1 mM thiamine pyrophosphate (TPP) and 50 mM Tris-HCl, pH 7.6 at 37°C. The reaction was initiated by the addition of 300 µL substrate mixture (see below) per mL of cuvette volume. The oxidation of NADH, which is directly proportional to transketolase activity, was followed by the decrease in absorbance at 340 nm (spectrophotometric method) or in fluorescence at 450 nm when excited at 330 nm (fluorimetric method) before and after the addition of the different compounds tested. A blank with all the assay components but the sample was performed in each experiment by measuring the oxidation of NADH. The substrate mixture was prepared by dissolving 50 mM ribose-5-phosphate in 50 mM Tris-HCl, pH 7.6, and adding 0.05 IU ribulose-5-phosphate-3-epimerase (from baker's yeast) and 0.25 IU phosphoriboisomerase (from spinach). The substrate mixture was continuously stirred and heated for 1 hour at 37°C and then kept at −20°C until use.
Protein concentration of cell extracts was determined using the BCA Protein Assay (Pierce Biotechnology, Rockford, IL) to calculate the specific activity of the transketolase enzyme.

HT29 cells = assay: MTT cell viability assay, HT29; assay type: cell-based, human
Method: (§1) HCT116 human colon carcinoma cells (gift from Dr Capellà, Institut Català d'Oncologia, Barcelona, Spain) were grown in DMEM∶HAM F12 (1∶1), supplemented with 10% heat-inactivated foetal calf serum (FCS) (PAA Laboratories, Pasching, Austria), L-glutamine (2 mM), pyruvic acid (1 mM), non-essential aminoacids (1%) and antibiotics: 100 U×mL^−1 penicillin and 100 µg×mL^−1 streptomycin. HT29 human colon adenocarcinoma cells (obtained from the American Type Culture Collection -ATCC-) were grown in Dulbecco's Modified Eagle's Medium, 25 mM D-glucose, 4 mM L-glutamine supplemented with 10% heat-inactivated FCS, and antibiotics: 100 U×mL^−1 penicillin and 100 µg×mL^−1 streptomycin (Invitrogen, Paisley, UK). All cell cultures were carried out at 37°C in a humidified atmosphere with 5% CO2. Subconfluent monolayers of cells were used in all experiments.
(§2) Cell viability was determined using the MTT assay, which is based on the ability of live cells to cleave the tetrazolium ring, thus producing formazan, which absorbs at 570 nm. 5000 cells/well HT29 cells or 1700 cells/well HCT116 cells were seeded into 96-well plates and incubated for 24 h prior to the addition of the different compounds at different concentrations, in triplicate. After incubation for 72 h, the supernatant was aspirated and 100 µL of filtered MTT (0.5 mg/mL) was added to each well. Following 1 h of incubation, the supernatant was removed and the formazan precipitated was dissolved in DMSO. Relative cell viability was measured by absorbance at 550 nm on an ELISA plate reader (Tecan Sunrise MR20-301, TECAN, Austria). Concentrations that inhibited cell growth by 50% (IC50) after treatment were determined.

HCT116 cells = assay: MTT cell viability assay, HCT116; assay type: cell-based, human
Method: as §1, §2

[2] = Homo sapiens, HT-29, 72 h incubation, read-out: IC50 Cell viability (HT29 cells)
[3] = Homo sapiens, HCT-116, 72 h incubation, read-out: IC50 Cell viability (HCT116 cells)

SMILES	IC50 [1] [µM]	inhibitory activity class (Figure 2) [1]	IC50 (HT29 cells; [2]) [µM]	IC50 (HCT116 cells; [3]) [µM]	transketolase inhibition in the enzymatic assay (in words) ([1]; cell extract)	IC50 (HT29 cells; 72 h incubation, read-out: IC50 cell viability (HT29)) [µM]	IC50 (HCT116 cells; 72 h incubation, read-out: IC50 cell viability (HCT116)) [µM]	IC50 ([1]; cell extract, compound concentration varied 50 to 300 µM, read-out: IC50 Transketolase from cell extract) [µM]
Cc1ccc([N+](=O)[O-])cc1NC(=O)Nc1cccc2c(O)cccc12 [T2A]	150	Actives	15	17				
CCc1ccc(NC(=O)Nc2cccc([N+](=O)[O-])c2)c(CC)c1 [T2D]	> 200	Inactives	> 200	> 200	no inhibition of transketolase			
Cc1ncc(C[n+]2csc(CCO)c2C)c(=O)[nH]1 [oxythiamine, reference compound]						8000	8000	
O=C(Nc1ccccc1)Nc1cc(Cl)c([N+](=O)[O-])cc1O [T2B]		Actives	6	12				100
Cc1c(Cl)cccc1NC(=O)Nc1cc([N+](=O)[O-])ccc1O [T2]	200	Actives	10	9				
O=[N+]([O-])c1cccc(NC(=S)Nc2cc(Cl)ccc2O)c1 [T2E]	> 200	Inactives	20	13	poorly active			
Cc1c(Cl)cccc1NC(=O)Nc1cccc(O)c1 [T2F]	> 200	Inactives			no activity			
Cc1c(Cl)cccc1NC(=O)Nc1ccc(CC(=O)O)cc1 [T2C]	> 200	Inactives	200	200	inactive			
